Test results reported in ChEMBL document CHEMBL1129899, “Synthesis of CD-ring modified 1,25-dihydroxy vitamin D analogues: Five-membered D-ring analogues” (1997).

How the values were obtained:
[1] = tested on: keratinocytes (Homo sapiens); assay: Antiproliferative activity relative to Calcitriol in Keratinocyte cell lines
Mus musculus = assay: In vivo calcemic effect was tested in vitamin D replete normal […] mice by measuring calcium levels in serum; type: functional; design: reference not given here
[2] = molecular target: T1, Vitamin D3 receptor (Homo sapiens) (UniProt P11473); assay: Relative affinity compared to Calcitriol in displacement of [3H]1H]1-alpha,25(OH)2D3 from vitamin D3 receptor in […] cells; type: cell-based
T1 sequence (whole entry): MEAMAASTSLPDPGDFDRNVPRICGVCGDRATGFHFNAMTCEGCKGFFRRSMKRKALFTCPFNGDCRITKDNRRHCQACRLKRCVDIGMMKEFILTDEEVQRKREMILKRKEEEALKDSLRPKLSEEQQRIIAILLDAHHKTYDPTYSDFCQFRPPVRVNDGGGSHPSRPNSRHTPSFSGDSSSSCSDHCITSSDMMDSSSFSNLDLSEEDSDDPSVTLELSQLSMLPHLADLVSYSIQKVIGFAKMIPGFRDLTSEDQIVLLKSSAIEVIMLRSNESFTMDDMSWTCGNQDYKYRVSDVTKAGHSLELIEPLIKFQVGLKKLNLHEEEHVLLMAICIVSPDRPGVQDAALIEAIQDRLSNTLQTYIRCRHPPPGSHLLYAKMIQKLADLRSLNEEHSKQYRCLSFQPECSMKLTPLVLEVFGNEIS

[3] = molecular target: T2, Vitamin D3 receptor (Sus scrofa) (UniProt A3RGC1); assay: Affinity for pig intestinal mucosa Vitamin D3 receptor (VDR); type: tissue-based
T2 sequence (whole entry): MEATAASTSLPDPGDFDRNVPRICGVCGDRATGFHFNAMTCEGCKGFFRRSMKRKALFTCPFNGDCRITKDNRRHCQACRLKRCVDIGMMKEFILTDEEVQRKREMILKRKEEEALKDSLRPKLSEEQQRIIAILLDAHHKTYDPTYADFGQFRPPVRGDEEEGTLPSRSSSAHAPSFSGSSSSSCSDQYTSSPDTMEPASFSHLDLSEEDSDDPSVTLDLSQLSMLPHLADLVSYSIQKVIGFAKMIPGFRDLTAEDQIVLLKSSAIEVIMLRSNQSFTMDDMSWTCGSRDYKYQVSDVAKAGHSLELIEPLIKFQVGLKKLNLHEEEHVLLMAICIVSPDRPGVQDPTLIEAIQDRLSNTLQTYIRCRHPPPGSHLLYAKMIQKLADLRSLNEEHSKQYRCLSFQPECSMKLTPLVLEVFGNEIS

[4] = molecular target: T1, Vitamin D3 receptor (Homo sapiens); assay: Relative affinity compared to Calcitriol in displacement of [3H]1H]1-alpha,25(OH)2D3 from vitamin D receptor (VDR) in MG-63 cells; type: functional, cell-based
[5] = molecular target: T1, Vitamin D3 receptor (Homo sapiens); assay: Relative affinity compared to Calcitriol in displacement of [3H]1H]1-alpha,25(OH)2D3 from Vitamin D3 receptor in HL-60 cells; type: functional, cell-based

Activity [1]	Activity [2]	Activity [3]	Activity [4]	Activity [5]	Structure (SMILES)	Activity (Mus musculus)
100%	85%	70	10%	100%	C=C1/C(=C/C=C/[C@@H]2CC[C@H]([C@@H](C)CCCC(C)(C)O)C2(C)C)C[C@@H](O)C[C@@H]1O	3
200%	150%	40	10%	100%	C=C1/C(=C/C=C/[C@@H]2CC[C@H]([C@@H](C)CC#CC(C)(C)O)C2(C)C)C[C@@H](O)C[C@@H]1O	0.5
85%	1%	80	8%	10%	C=C1/C(=C/C=C/[C@@H]2CC[C@H]([C@H](C)CCCC(C)(C)O)[C@@]2(C)CCC)C[C@@H](O)C[C@@H]1O	1
90%	85%	80	30%	85%	C=C1/C(=C/C=C/[C@@H]2CC[C@H]([C@H](C)CCCC(C)(C)O)C2(C)C)C[C@@H](O)C[C@@H]1O	0.3
–	200%	40	–	100%	C=C1/C(=C/C=C/[C@@H]2CC[C@H]([C@H](C)CC#CC(C)(C)O)C2(C)C)C[C@@H](O)C[C@@H]1O	0.25
